Series [1] has as its system rat caudate nucleus synaptosomal preparation. The conditions noted are these: cited from earlier work.
In another series the test system is obese women. Conditions: cited from earlier work.
In series [2] the test system is Over-Eating. The conditions noted are these: 400 mcg, cited from earlier work.
Series [3] deals with Over-Eating. Conditions: after six months, p < 0.001 between groups; cited from earlier work.
Series [4] has as its system Over-Eating. Conditions: cited from earlier work.
For series [5], the system named is obese subjects genotyped for DRD2. Kind of series: Chromium picolinate body composition as a function of DRD2 genotype. Format: in vivo, human. The conditions noted are these: subjects possessing a DRD2 A1 allele. How it is done: A Case Study: Chromium and Dopamine Genes. The inventors embarked on a study with chromium picolinate to test out the principles of nutrigenomics. In this study they genotyped obese subjects for the dopamine D2 receptors gene (DRD2). The subjects were assessed for scale weight and for percent body fat. The subjects were divided into matched placebo and chromium picolinate (CrP) groups. […] Moreover, the inventors propose for the first time that mixed effects now observed with CrP administration in terms of body composition, may be resolved by typing the patient via DRD2 genotyping prior to treatment with chromium salts.

In series [6] the test system is rats. The conditions noted are these: morphine 5 mg/kg, D-phenylalanine 100 mg/kg; similar degree; cited from earlier work.
In series [7] the test system is mice. As to the kind of experiment: Alcohol preference in mice (acceptance and 14 day preference test). It is filed as in vivo. Conditions: d-phenylalanine 500 mg/kg/day 18 days, hydrocinnamic acid 25 micrograms icv.
For series [8] the following is noted: rats; cited from earlier work.
The subject of the next series is patients with CRPS1. The conditions noted are these: 3 of 5 patients; unchanged in the other 2; cited from earlier work.
The target in the next series is T1, CYP2D6 (Homo sapiens, UniProt P10635).
T1 construct: host or cells: patients on methadone (in vivo)
The conditions noted are these: extensive but not poor metabolizers of debrisoquine/sparteine; cited from earlier work.

Series [9] has as its system rats. The conditions noted are these: naloxone 0.1 mg/kg; species not stated; cited from earlier work.
The subject of series [10] is nucleus accumbens enkephalins. The conditions noted are these: administered into the nucleus accumbens; cited from earlier work.
A further series concerns paw edema by carrageenin. Conditions: topical 1% ointment, rats; cited from earlier work.
In series [11] the test system is intracranial self-stimulation. The conditions noted are these: nucleus accumbens microinjections; cited from earlier work.
For series [12] the following is noted: in vivo; cited from earlier work.
The test system of a further series is enkephalinase. The conditions noted are these: cited from earlier work; for plasma EKA / CSF EKA: human sufferers.
The subject of a further series is cats. The conditions noted are these: peptide 0.35 mg/kg and D-phenylalanine 10 mg/kg; cited from earlier work.
The test system of series [13] is mice. Conditions: cited from earlier work.
For series [14] the following is noted: 250 mg/kg, reversed by naloxone; cited from earlier work.
For series [15], the system named is rats. The conditions noted are these: injections in rats; cited from earlier work.
Series [16] concerns patients receiving opiates for chronic non-malignant pain. Conditions: concurrent treatment, author's clinical experience; cited from earlier work.
In the next series the test system is rat skin. The conditions noted are these: applied to rat skin; cited from earlier work.
The conditions of series [17]: oral oil-based paste, free access to food, three of six animals; cited from earlier work.
The conditions of series [18]: with soya-lecithin, n-octanol-phosphate buffer; cited from earlier work.
Series [19] deals with release of serotonin in the lateral hypothalamus. Conditions: systemic administration, long lasting and dose dependent; cited from earlier work.
The next series deals with methadone patients. As to the kind of experiment: Compliance with Trexan after rapid detoxification of methadone patients. Format: in vivo, human. The conditions noted are these: P<0.0001. An excerpt:
It may also be interesting too further test this hypothesis with the sublingual combination of the partial opiate mu receptor agonist buprenorphrine.

In series [20] the test system is brain dopamine and serotonin flux. Conditions: intravenously, cited from earlier work.
The test system of series [21] is SH-SY5Y human neuroblastoma cells. The conditions noted are these: cited from earlier work.
[22] abbreviates: exercise training combined with CrP supplementation.

Read-outs that look alike come from different tables or passages of the source. Bridge positions count the residues as written; N and C are the ends. Square brackets hold non-standard residues; d marks the D form. Peptide text beside a SMILES is read from it. * marks the point of attachment. Ileψ(thiazoline)Cys = CC[C@H](C)[C@H](N)C1=N[C@H](C(=O)*)CS1; dOrn = NCCC[C@@H](N)C(=O)O

T1 sequence (P10635 whole entry): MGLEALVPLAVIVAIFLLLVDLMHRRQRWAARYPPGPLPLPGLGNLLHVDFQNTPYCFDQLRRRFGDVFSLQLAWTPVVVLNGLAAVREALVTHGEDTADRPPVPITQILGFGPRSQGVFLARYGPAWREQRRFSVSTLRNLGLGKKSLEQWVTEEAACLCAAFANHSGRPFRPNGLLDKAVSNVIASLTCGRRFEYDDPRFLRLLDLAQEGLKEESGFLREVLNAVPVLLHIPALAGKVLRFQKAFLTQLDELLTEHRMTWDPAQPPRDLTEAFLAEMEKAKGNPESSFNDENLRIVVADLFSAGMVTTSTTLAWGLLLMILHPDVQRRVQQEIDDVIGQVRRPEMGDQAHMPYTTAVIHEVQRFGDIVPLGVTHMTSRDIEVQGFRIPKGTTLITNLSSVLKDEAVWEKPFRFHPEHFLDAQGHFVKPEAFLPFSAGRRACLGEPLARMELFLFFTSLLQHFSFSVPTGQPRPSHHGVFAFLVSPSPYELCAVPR

As for `CCn1cc(C(=O)O)c(=O)c2ccc(Cc3ccccc3)nc21` [Amfoelic acid], in [1], the “release of dopamine formed from 14C-phenylalanine” value (from here on “release of dopamine formed”) is given as “net release”.

Regarding Chromium Picolinate, the weight change entry in the series with obese women (CrP supplementation alone, 63 days) was “gain, while”; in the series on obese women (setting [22]), “loss”. Besides, the “insulin response to an oral glucose load” value in the series on obese women (setting [22]) is “lowered”. Moreover, the “weight (p < 0.001) and body fat (p < 0.004) lost compared with placebo” value with Over-Eating [2] (90 days) is on record as “significantly more”. The “reduction in body fat” value in the series with Over-Eating [2] (p < 0.001) is reported as “greater reduction”. For the same compound, in the series with Over-Eating [2] (p < 0.004), the body composition result is reported as “improve body”. For the same compound, the lean body mass result in the series on Over-Eating [3] is “an increase in”. In addition, the “body composition, body fat, nonfat mass” value in the series with Over-Eating [4] (00 mcg or 400 mcg, two double-blind placebo controlled studies) is “body composition improvement, loss of body fat, gain in nonfat mass”. Moreover, the “changes in Body Mass composition indicies compared with placebo” value in the series with Over-Eating [4] (200 and 400 mcg, 72 days) is “about significant”. The “any parameter of weight and body fat change” value in series [5] is “no significance”. As to `CN1CC[C@]23c4c5ccc(O)c4O[C@H]2[C@@H](O)C=C[C@H]3[C@H]1C5` [morphine], the pain reaction thresholds entry with rats [6] is reported as “increase”. Take `O=C(O)CCc1ccccc1` [hydrocinnamic acid]: the alcohol preference result in the series on mice [7] was “significantly reduced”. Consider `CCCCCCCCC1CCCCC1=O` (centres unmarked) [2-n-octylcyclohexanone], for which the “percutaneous absorption of ketoprofen and indomethacin from gel ointments” value (“percutaneous absorption” for short) in series [8] is recorded as “Pronounced effects”. As for `O=[N+]([O-])O[C@H]1CO[C@H]2[C@@H]1OC[C@H]2O[N+](=O)[O-]` [ISDN, isosorbide dinitrate], the “Visual Analog Scale pain” value with patients with CRPS1 is “declined”. With `Fc1ccc([C@@H]2CCNC[C@H]2COc2ccc3c(c2)OCO3)cc1` [paroxetine], on CYP2D6, the “steady-state plasma concentrations of (R)-methadone” value is listed as “increases”. `C=CCN1CC[C@]23c4c5ccc(O)c4O[C@H]2C(=O)CC[C@@]3(O)[C@H]1C5` [Naloxone]: the “analgetic effect of peptide IKB-901” value with rats [9] is listed as “prevents”. In addition, the “antinociception induced by intra-periaqueductal gray injection of morphine” value in [10] is “attenuated”. On to `CC(N)Cc1ccccc1` (centres unmarked) [Amphetamine], for which the “release of dopamine formed” value in series [1] is “increased”.

Turning to `CN1[C@@H]2CC[C@H]1C[C@@H](OC(c1ccccc1)c1ccccc1)C2` [Cogentin], the “release of dopamine formed” value in series [1] is “increased”.

As for `COc1ccc2c(c1)c(CC(=O)O)c(C)n2C(=O)c1ccc(Cl)cc1` [indomethacin], in the series on paw edema by carrageenin, the “paw edema by carrageenin” value is reported as “markedly inhibited”. `C[C@H](NC(=O)[C@@H](CC(=O)NO)Cc1ccccc1)C(=O)O` [kelatrophan]: the intracranial self-stimulation entry in [11] is given as “reduced”. Turning to `N[C@H](Cc1ccccc1)C(=O)O` [D-phenylalanine], the analgesia entry in [12] is listed as “naloxone reversible analgesia”; with mice [13], “long-lasting, naloxone-reversible analgesia”; in [14], “elicits analgesia”. Further, in the series with enkephalinase, the “plasma EKA” value is “decreased”. Moreover, in the series with rats [6], the pain reaction thresholds result is reported as “increase”. Besides, the “analgesia on coadministration with peptide IKB-901” value in the series on cats is recorded as “enhances analgesia”. Further, the “antinociception induced by intra-periaqueductal gray injection of morphine” value in series [10] is “potentiated”. Further, in the series on mice [7], the alcohol preference result is given as “significantly reduced”. In the series with rats [15], the “CWS analgesia and morphine analgesia” value was “decrease CWS analgesia while increasing morphine analgesia”. With `C[C@H](CS)C(=O)N1CCC[C@H]1C(=O)O` [captopril], in the series with enkephalinase, the “CSF EKA” value is reported as “decreased”. In the case of `O=C(O)CNC(=O)C(CS)Cc1ccccc1` (centres unmarked) [thiorphan], in the series on enkephalinase, the “CSF EKA” value is “decreased” and the “plasma EKA” value is “decreased”. The “potency as enkephalinase inhibitor among the three drugs” value in the series with enkephalinase (plasma and CSF) is given as “most potent”. In the case of `NC(Cc1ccccc1)C(=O)O` (racemic) [DL-phenylalanine (DLPA), DL-phenylalanine], the “pain relief in patients receiving opiates” value in series [16] is on record as “potentiate”. Take `CC12CCC(CC1)C(C)(C)O2` [1,8-cineole]: the “Plasma concentrations of KPF with addition of the enhancer to gel ointment” value with rat skin was “no significant enhancing effect”.

Take `COc1ccc(C[C@H](N)C(=O)N[C@H]2[C@@H](O)[C@H](n3cnc4c(N(C)C)ncnc43)O[C@@H]2CO)cc1` [puromycin]: in the series with mice [13], the analgesia result was “long-lasting, naloxone-reversible analgesia”. Regarding `CC(C(=O)O)c1cccc(C(=O)c2ccccc2)c1` (racemic) [Ketoprofen], the concentrations in plasma entry in series [17] is given as “no detectable concentrations”. Further, the “paw edema by carrageenin” value in the series on paw edema by carrageenin is given as “markedly inhibited”. In addition, in series [18], the partition into n-octanol result is recorded as “improves”.

`O=C(O)Cc1ccccc1Nc1c(Cl)cccc1Cl` [diclofenac sodium]: the “paw edema by carrageenin” value in the series with paw edema by carrageenin is on record as “markedly inhibited”. On to `CC(C)[C@@H]1CC[C@@H](C)C[C@H]1O` [l-menthol], for which the “Plasma concentrations of KPF with addition of the enhancer to gel ointment” value with rat skin is “no significant enhancing effect”. In the case of `N[C@@H](Cc1c[nH]c2ccc(O)cc12)C(=O)O` [5-HTP, 5-hydroxy-1-tryptophan], in series [19], the 5-HT in dialysates result is “immediate increase”. With `Cl.O=C1CC[C@@]2(O)[C@H]3Cc4ccc(O)c5c4[C@@]2(CCN3CC2CC2)[C@H]1O5` [Trexan®], the “average number of days of compliance” value with methadone patients was 37 days.

For `CC(C)CC(N(C)C)C1(c2ccc(Cl)cc2)CCC1` (centres unmarked) [sibutramine], the “serotonin and dopamine concentrations in the striatal and hypothalamic brain regions” value in [20] (higher doses) was “increased”. The “serotonin and dopamine concentrations in dialysates” value in series [20] (low doses) is on record as “no effect”. Regarding `CC1CCCC(C)C1=O` (centres unmarked) [2,6-dimethyl], the “percutaneous absorption” value in [8] is listed as “significantly lower”.

For the compound `CC(C)(C)C1CCCCC1=O` (centres unmarked) [2-tert-butylcyclohexanone], in series [8], the “percutaneous absorption” value was “markedly enhanced”.

As to `CC(C)(C)C1CCC(=O)CC1` [4-tert-butylcyclohexanone], the “percutaneous absorption” value in series [8] was “significantly lower”.

As to `CC[C@H](C)[C@H](N)C1=N[C@H](C(=O)N[C@@H](CC(C)C)C(=O)N[C@H](CCC(=O)O)C(=O)N[C@H](C(=O)N[C@H]2CCCCNC(=O)[C@H](CC(N)=O)NC(=O)[C@@H](CC(=O)O)NC(=O)[C@H](Cc3cnc[nH]3)NC(=O)[C@@H](Cc3ccccc3)NC(=O)[C@H]([C@@H](C)CC)NC(=O)[C@@H](CCCN)NC2=O)[C@@H](C)CC)CS1` [bacitracin] ({Ileψ(thiazoline)Cys}-L[dE]IK[dOrn]I[dF]H[dD]N; lactam 4-C), the analgesia entry in the series on mice [13] was “long-lasting, naloxone-reversible analgesia”. For the compound `OC[C@H]1O[C@@H](OCCc2ccc(O)cc2)[C@H](O)[C@@H](O)[C@@H]1O` [Salidroside], in [21] (SH-SY5Y cells), the “H2O2-induced loss of mitochondrial membrane potential and elevation of intracellular calcium level” value was “dose-dependently restored”. In addition, in series [21], the antioxidant property entry is “potent”.

The values are drawn from patent US20110189161A1, “NUTRIGENOMICS METHODS AND COMPOSITIONS” (priority 2008, published 2011).
